Experimental data reported in ChEMBL document CHEMBL1649262, “Nosocomial spread of colistin-only-sensitive sequence type 235 Pseudomonas aeruginosa isolates producing the extended-spectrum beta-lactamases GES-1 and GES-5 in Spain” (2009).
In brackets after ≈: the same amount, converted by molar mass.

Columns and labels:
[1] = system: Pseudomonas aeruginosa; test: Antibacterial activity against mexB and mexY expressing Pseudomonas aeruginosa PA-A1 harboring GyrA T83I, ParC S87L and IS1001 insertion at position 629 in OprD gene by Etest method; type: functional
[2] = system: Pseudomonas aeruginosa; test: Antibacterial activity against Pseudomonas aeruginosa PAO1 by Etest method; type: functional
[3] = system: Pseudomonas aeruginosa; test: Antibacterial activity against mexB and mexY expressing Pseudomonas aeruginosa PA-A2 harboring GyrA T83I, ParC S87L and IS1001 insertion at position 629 in OprD gene by Etest method; type: functional
[4] = system: Pseudomonas aeruginosa; test: Antibacterial activity against mexB and mexY expressing Pseudomonas aeruginosa PA-A3 harboring GyrA T83I, ParC S87L and IS1001 insertion at position 629 in OprD gene by Etest method; type: functional
[5] = system: Pseudomonas aeruginosa; test: Antibacterial activity against Pseudomonas aeruginosa PAO1 harboring plasmid pA1 by Etest method; type: functional
[6] = system: Pseudomonas aeruginosa; test: Antibacterial activity against Pseudomonas aeruginosa PAO1 harboring plasmid pA1 by Etest in presence of clavulanic acid
[7] = system: Pseudomonas aeruginosa; test: Antibacterial activity against Pseudomonas aeruginosa PAO1 by Etest method in presence of Tazobactam; type: functional
[8] = system: Pseudomonas aeruginosa; test: Antibacterial activity against mexB and mexY expressing Pseudomonas aeruginosa PA-A1 harboring GyrA T83I, ParC S87L and IS1001 insertion at position 629 in OprD gene by Etest method in presence of Tazobactam; type: functional
[9] = system: Pseudomonas aeruginosa; test: Antibacterial activity against mexB and mexY expressing Pseudomonas aeruginosa PA-A2 harboring GyrA T83I, ParC S87L and IS1001 insertion at position 629 in OprD gene by Etest method in presence of Tazobactam; type: functional
[10] = system: Pseudomonas aeruginosa; test: Antibacterial activity against mexB and mexY expressing Pseudomonas aeruginosa PA-A3 harboring GyrA T83I, ParC S87L and IS1001 insertion at position 629 in OprD gene by Etest method in presence of Tazobactam; type: functional
[11] = system: Pseudomonas aeruginosa; test: Antibacterial activity against Pseudomonas aeruginosa PAO1 harboring plasmid pA1 by Etest method in presence of Tazobactam; type: functional

Compound | MIC [1] [µg/mL] | MIC [2] [µg/mL] | MIC [3] [µg/mL] | MIC [4] [µg/mL] | MIC [5] [µg/mL] | MIC [6] [µg/mL] | MIC [7] [µg/mL] | MIC [8] [µg/mL] | MIC [9] [µg/mL] | MIC [10] [µg/mL] | MIC [11] [µg/mL]
NCC[C@H](O)C(=O)N[C@@H]1C[C@H](N)[C@@H](O[C@H]2O[C@H](CN)[C@@H](O)[C@H](O)[C@H]2O)[C@H](O)[C@H]1O[C@H]1O[C@H](CO)[C@@H](O)[C@H](N)[C@H]1O [AMIKACIN] | > 256 | 4 (≈ 6.83 µM) | > 256 | > 256 | > 32 |  |  |  |  |  | 
C[C@H]1[C@H](NC(=O)/C(=N\OC(C)(C)C(=O)O)c2csc(N)n2)C(=O)N1S(=O)(=O)O [AZTREONAM] | > 256 | 1.5 (≈ 3.44 µM) | > 256 | > 256 | > 256 |  |  |  |  |  | 
CO/N=C(\C(=O)N[C@@H]1C(=O)N2C(C(=O)[O-])=C(C[N+]3(C)CCCC3)CS[C@H]12)c1csc(N)n1 [CEFEPIME] | > 256 |  | > 256 | > 256 | > 256 |  |  |  |  |  | 
CC(C)(O/N=C(\C(=O)N[C@@H]1C(=O)N2C(C(=O)[O-])=C(C[n+]3ccccc3)CS[C@H]12)c1csc(N)n1)C(=O)O [CEFTAZIDIME] | > 256 | 1 (≈ 1.83 µM) | > 256 | > 256 | > 256 |  |  |  |  |  | 
O=C(O)c1cn(C2CC2)c2cc(N3CCNCC3)c(F)cc2c1=O [CIPROFLOXACIN] | > 32 |  | > 32 | > 32 | 0.064 (≈ 0.193 µM) |  |  |  |  |  | 
C[C@@H](O)[C@H]1C(=O)N2C(C(=O)O)=C(SCCNC=N)C[C@H]12 [IMIPENEM ANHYDROUS] | > 32 | 1 (≈ 3.34 µM) | > 32 | > 32 | 8 (≈ 26.7 µM) | 4 |  |  |  |  | 
C[C@@H](O)[C@H]1C(=O)N2C(C(=O)O)=C(S[C@@H]3CN[C@H](C(=O)N(C)C)C3)[C@H](C)[C@H]12 [MEROPENEM] | > 32 | 0.25 (≈ 0.652 µM) | > 32 | > 32 | > 32 |  |  |  |  |  | 
CCN1CCN(C(=O)N[C@@H](C(=O)N[C@@H]2C(=O)N3[C@@H]2SC(C)(C)[C@@H]3C(=O)O)c2ccccc2)C(=O)C1=O [PIPERACILLIN] | > 256 | 3 (≈ 5.8 µM) | > 256 | > 256 | > 256 |  | 2 | > 256 | > 256 | > 256 | > 256
NC[C@H]1O[C@H](O[C@H]2[C@H](O)[C@@H](O[C@H]3O[C@H](CO)[C@@H](O)[C@H](N)[C@H]3O)[C@H](N)C[C@@H]2N)[C@H](N)C[C@@H]1O [TOBRAMYCIN] | > 256 | 1 (≈ 2.14 µM) | > 256 | > 256 | 16 (≈ 34.2 µM) |  |  |  |  |  | 
COLISTIN | 2 | 1 | 2 | 2 | 1 |  |  |  |  |  | 
GENTAMICIN | > 256 | 2 | > 256 | > 256 |  |  |  |  |  |  | 
